Measurements published in patent US9827313B2, “Self-assembled pharmaceutical composition for photodynamic therapy” (SNU R&DB FOUNDATION, priority 2014, dated 2017).

Assays:
[1] = test system: heterogeneous CT26 tumors; experiment: In vivo PDT in heterogeneous drug-resistant CT26 tumors; parameters: species or system BALB/c nude mice; conditions: heterogeneous CT26 tumors after PDT
Description: For histology analysis, tumor tissues from control and treated mice were fixed in 10% neutral buffered formalin and frozen sectioned into 5 micron thick slices, stained with hematoxylin & eosin (H&E) and terminal deoxynucleotidyl transferase dUTP nick-end labeling (TUNEL), and were examined by a digital microscope (Leica QWin) and a confocal laser scanning microscope (LSM 510 Meta; Zeiss, Germany).
For in vitro PDT, HCT116 cells (5×10^4/well) were incubated with the materials described above. Photosensitization experiments were then performed by irradiating the cells with a 670-nm laser source (Institute of Electronics) for 2 min. The power at the level of the cells was fixed at 5 mW/cm^2. Cell viability was assessed using the MTT assay. Absorbance intensity was measured at 595 nm using a microplate reader (Bio-Tek, VT, USA). A parallel set of control cells was also used in which cells incubated with the respective materials were not exposed to laser irradiation. […] The tumor size was measured 3 times a week after the first PDT treatment by using a Vernier caliper, and tumor volumes were calculated from width (a) and length (b) measurements (V=a^2×b/2, where a≦b). All mice were killed when the tumor measured 1,000 mm^3, at the first sign of suffering, or between 15 and 21 day post-transplantation.

HCT116 cancer cells = experiment: pH-dependent cellular uptake (flow cytometry, fluorescence imaging); format: cell-based, human; conditions: HCT116, pH 6.8 vs pH 7.4
Description: HCT116 cells were exposed to PMNs, InS-NPs and Ce6 at different pHs to verify their cellular uptake respectively. The cells were incubated for 2 h, washed, harvested, and re-suspended with DPBS. In vitro cellular uptake was quantified using a flow cytometer (Beckman, San Jose, Calif., USA). For each sample 10,000 cells (gated events) were counted, and free Ce6 fluorescence was detected with logarithmic settings (FL4; λem=670 nm). Cells were counted as positive if their fluorescence (FL4) was higher than that of cells from an untreated cell suspension. Each experiment was analyzed statistically using the CXP Analysis Program.
The tumor cellular uptake of PMNs was monitored at different pH conditions (pH 7.4 and 6.8) using a KODAK In vivo Image Station (Image Station 4000 MM; Kodak, New Haven, Conn., USA) and a flow cytometer (Beckman, San Jose, Calif., USA). HCT116 cells (1×10^5 cells/mL) were incubated with each sample for 2 h in RPMI-1640 medium (pH 7.4 or 6.8, with 1% penicillin-streptomycin) at 37° C. and then analyzed. To ameliorate photobleaching during microscope observation, a drop of anti-fade mounting solution (5% N-propyl gallate, 47.5% glycerol, and 47.5% Tris-HCl, pH 8.4) was added to the cells.

## chlorin E6 [Ce6]
[1]
  damage to tumor tissue cells, microvasculature and fibroblasts (H&E, TUNEL): no obvious damage
HCT116 cancer cells
  cellular uptake, pH dependence: not affected by changes in pH
